In brackets after ≈: the same amount, converted by molar mass.
How the values were obtained:
[1] = Kinetic solubility in PBS pH 7.4, HPLC-UV (Example 21, Table 27); assay type: physicochemical; settings: phosphate buffered saline, aqueous buffer, kinetic from dmso stock, 0.5 M PBS, shaken minimum 24 h at approximately 25° C., HPLC-UV 270 nm
Outline: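 10 mM DMSO stock diluted into 0.05 M PBS pH 7.4 (5% DMSO final), in triplicate, shaken ≥24 h at ~25 °C, then filtered by centrifugation. Supernatant concentration by HPLC-UV at 270 nm against external DMSO standards (15.6–500.0 μM).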

[2] = molecular target: human C5 complement protein (Homo sapiens, UniProt P01031); experiment: Surface plasmon resonance (SPR), immobilized human C5, 37° C. (Example 27, Table 31); assay type: binding; settings: lowest value obtained where a range of concentrations was analyzed (Table 31)
Human C5 [3] = molecular target: T1, Human C5 (Homo sapiens, UniProt P01031); experiment: Red blood cell (RBC) hemolysis assay, luminescent (Example 28, Table 32); assay type: cell-based; settings: sheep EA cells, 1.5% C5-depleted human serum, 0.5 nM human C5, 1 hour at 37° C., luminescence (Table 32)
T1 construct: purchased Complement Technology

Human C5 [4] = molecular target: T1, Human C5; experiment: Surface plasmon resonance (SPR), compounds on immobilized human C5 (Example 2, Table 5); assay type: binding; settings: lowest value where a range of compound concentrations were analyzed
Description: Surface plasmon resonance (SPR) technology was used to evaluate affinity, specificity, and kinetics of interactions between compounds and complement protein C5 in real time without the need for labeling.
SensiQ FE SPR system (SensiQ Technologies, Oklahoma City, Okla.) was used to provide sensitive and accurate detection of binding of small molecules to the very large C5 protein (MW=195,000 Da). The chip was prepared by preconditioning the sensor according to the protocol of the SensiQ FE using 10 mM HCl, 50 mM NAOH and 0.1% SDS. The sensor chip was activated by using a mixture of fresh EDAC (1-ethyl-3-(-3-dimethylaminopropyl) carbodiimide) (Sigma Co., St. Louis, Mo.) and NHS (N-hydroxy succinimide) (Sigma Co., St. Louis, Mo.). Human C5 was surface immobilized to a Pioneer Biosensor chip via random amine coupling (>12,000 RU) which makes use of the N-terminus and ε-amino groups of lysine residues of the protein ligand. Immobilization was done by injecting 30-40 μg/ml C5 in 10 mM NaAc pH 4.5 onto designated channels at a rate of 10 μL/minute for 12 minutes, targeting RL>12000 RU for small molecules.
Compounds were diluted in DMSO in a format of 100-fold final concentration and 3-fold serial dilution (5 or 6 dilutions). The 100-fold compounds were transferred to one-fold DMSO-free assay buffer in the 96-well test plate. The compound solution was injected at a rate of 60 μL/minute for 30-60 seconds, followed by 60-90 seconds dissociation time, buffer flushing and/or priming. Blank solution (1% DMSO assay buffer) was run for every 6 injections of compounds. Double reference by subtracting both blank channel and reference channel was applied for data processing. Titration of C5 binding compounds to the C5-immobilized biosensor chip surface led to interactions between C5 and potential binders, and the resulting changes of surface refractive index were sensitively measured by the system.
SPR data were analyzed with the managing software provided by SensiQ and equilibrium dissociation constant (KD) values were determined for each compound. Where a range of compound concentrations were analyzed, the lowest value obtained is presented.

purified human C5 = purified human C5 (Homo sapiens, UniProt P01031); experiment: Red blood cell hemolysis assay, optical, absorbance 412 nm (Example 3, Table 6); assay type: cell-based; settings: antibody-sensitized sheep erythrocytes, 1.5% human C5 depleted sera, 0.5 nM human C5; average where replicates
Description: Experiments were carried out using a red blood cell (RBC) hemolysis assay to assess compound inhibition of RBC lysis. […] The assay was carried out using 1.5% human C5 depleted sera and 0.5 nM purified human C5.
GVB++ buffer (Complement Technology, Tyler, Tex.) was heated at 37° C. for a minimum of 20 minutes. The human C5 depleted sera and purified human C5 were rapidly thawed at 37° C. and then stored on ice or wet ice, respectively. The compound stock (10 mM, DMSO) was serially diluted in 100% DMSO to obtain ten 6-fold dilutions before addition of GVB++. Sera dilution was prepared by adding 5 mL of GVB++ to a 15 mL conical tube, removing 600 μL of the GVB++ and adding 600 μL of the 100% sera. The tube was mixed by inverting three times. A volume of 25 μL of the diluted sera was added to each well so that the final concentration of sera in the well was 1.5%. C5 dilution was prepared by adding 5 mL of GVB++ to a 15 mL conical tube, removing 4 μL of the GVB++ and adding 4 μL of the C5 stock. The tube was mixed by inverting three times. A volume of 25 μL was added to each well so that the final amount of C5 was 0.5 nM in each well. The antibody-sensitized sheep erythrocytes (EAs) were centrifuged at 1,000× gravity at 22° C. for 3 minutes. The supernatant was pipetted off without disrupting the pellet. The pellet was then resuspended in GVB++ with the same volume removed. Resuspended EAs were mixed by gently inverting the tube.
Five controls were run on each plate: (1) EAs only=100 μL EAs+50 μL GVB++ with 4% DMSO+50 μL GVB++; (2) EA+Sera=100 μL EAs+50 μL GVB++ with 4% DMSO+25 μL Sera dilution+25 μL GVB++; (3) EA+C5=100 μL EAs+50 μL GVB++ with 4% DMSO+25 μL C5 dilution+25 μL GVB++; (4) EA+Sera+C5=100 μL EAs+50 μL GVB++ with 4% DMSO+25 μL Sera dilution+25 μL C5; (5) GVB++ Only=200 μL GVB++. Other wells included: GVB++ with 4% DMSO=20 μL DMSO+480 μL GVB++. All samples were analyzed in duplicate. The compound dose response curve was generated using samples prepared with 100 μL EA+50 μL compound dilution+25 μL C5 dilution+25 μL sera dilution.
Test plates were prepared by adding 100 μL of EAs, 50 μL of compound dilution, 25 μL of sera dilution, and 25 μL of C5 dilution to individual wells of a 96-well tissue culture-treated clear microtitre plate (USA Scientific, Ocala, Fla.) and resuspending by pipetting up and down three times. The samples were incubated at 37° C. for one hour. At the completion of the incubation, the plates were centrifuged at 1,000× gravity for 3 minutes. 100 μl of supernatant were transferred to a new plate and the absorbance was read at 412 nm. Data was fit with a log-logit formula producing a dose-response curve and IC50.
“IC50” refers to the half maximal inhibitory concentration, where the value is the concentration of the inhibitor needed to reduce red blood cell hemolysis by half. Where replicate analysis was conducted, average IC50 values are provided along with standard deviation (SD) values.

Human C5 [5] = molecular target: T1, Human C5; experiment: Hemolysis assay, luminescent, classical complement pathway (Example 4, Table 7); assay type: cell-based; settings: sheep EA cells, 1.5% C5-depleted human serum, 0.5 nM human C5, luminescence readout
Excerpt: Numbers in parenthesis following the compound number indicate alternate enantiomers (as distinguished by retention time during chromatographical separation).

purified human C5, sequence (P01031 19-1676): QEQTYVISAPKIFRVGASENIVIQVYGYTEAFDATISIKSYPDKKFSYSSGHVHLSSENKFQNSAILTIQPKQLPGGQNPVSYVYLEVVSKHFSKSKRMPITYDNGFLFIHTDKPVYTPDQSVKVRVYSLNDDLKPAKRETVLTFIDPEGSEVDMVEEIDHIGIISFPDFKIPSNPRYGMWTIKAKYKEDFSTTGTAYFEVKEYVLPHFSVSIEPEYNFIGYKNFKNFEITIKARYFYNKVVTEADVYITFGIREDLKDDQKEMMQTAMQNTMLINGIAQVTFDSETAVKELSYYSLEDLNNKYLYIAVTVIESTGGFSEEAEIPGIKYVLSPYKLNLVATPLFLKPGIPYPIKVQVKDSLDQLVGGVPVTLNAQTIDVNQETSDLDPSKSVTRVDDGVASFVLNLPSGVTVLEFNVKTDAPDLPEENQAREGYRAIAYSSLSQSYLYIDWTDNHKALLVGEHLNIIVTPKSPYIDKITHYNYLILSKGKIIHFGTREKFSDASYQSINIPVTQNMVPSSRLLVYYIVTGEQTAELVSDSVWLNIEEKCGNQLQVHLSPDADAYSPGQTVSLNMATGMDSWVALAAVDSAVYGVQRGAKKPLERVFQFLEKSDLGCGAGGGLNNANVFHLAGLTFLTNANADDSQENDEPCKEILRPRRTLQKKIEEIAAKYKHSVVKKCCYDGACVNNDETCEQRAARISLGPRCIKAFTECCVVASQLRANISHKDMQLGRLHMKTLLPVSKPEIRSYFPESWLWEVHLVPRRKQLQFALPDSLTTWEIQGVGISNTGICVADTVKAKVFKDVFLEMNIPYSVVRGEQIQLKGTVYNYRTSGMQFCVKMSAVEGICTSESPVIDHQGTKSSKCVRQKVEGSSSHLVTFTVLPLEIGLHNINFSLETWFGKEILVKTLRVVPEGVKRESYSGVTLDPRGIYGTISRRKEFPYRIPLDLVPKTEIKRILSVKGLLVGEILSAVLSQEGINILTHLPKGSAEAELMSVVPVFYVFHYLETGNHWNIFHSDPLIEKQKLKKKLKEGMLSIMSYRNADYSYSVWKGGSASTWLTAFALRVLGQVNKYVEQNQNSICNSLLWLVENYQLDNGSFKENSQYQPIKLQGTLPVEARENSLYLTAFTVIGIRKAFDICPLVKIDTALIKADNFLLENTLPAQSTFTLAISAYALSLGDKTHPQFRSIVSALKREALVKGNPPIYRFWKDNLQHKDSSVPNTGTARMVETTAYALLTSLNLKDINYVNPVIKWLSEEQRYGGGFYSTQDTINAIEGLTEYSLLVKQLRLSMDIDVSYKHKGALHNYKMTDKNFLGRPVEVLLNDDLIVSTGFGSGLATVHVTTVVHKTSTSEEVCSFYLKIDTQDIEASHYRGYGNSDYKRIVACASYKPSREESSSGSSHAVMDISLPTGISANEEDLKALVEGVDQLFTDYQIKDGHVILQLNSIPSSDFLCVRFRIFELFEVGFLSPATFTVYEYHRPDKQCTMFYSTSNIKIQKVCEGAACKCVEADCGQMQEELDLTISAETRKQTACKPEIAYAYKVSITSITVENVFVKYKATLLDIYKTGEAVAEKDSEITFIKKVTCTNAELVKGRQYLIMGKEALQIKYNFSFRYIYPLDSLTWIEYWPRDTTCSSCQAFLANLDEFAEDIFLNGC
T1 sequence (P01031 19-1676): as above
human C5 complement protein, sequence (P01031 19-1676): as above

Compound `CCCCCOc1cc(N2CC(CO)CN(Cc3ccc(CC(=O)N4CCCC4)cc3OC)C2=O)ccc1OC` (stereo not shown) [SC0184] has a solubility kinetic [1] of 411 µM (≈ 228 µg/mL), a Kd [2] of 2.94 nM and an IC50 (Human C5 [3]) of 5.7 nM.

With `COc1ccc(NC(=O)N[C@@H](CO)c2ccccc2OC)cc1OCCCC(C)C` [SM0002] the Kd (Human C5 [4]) was 14 nM, the IC50 (purified human C5) was 21.9 nM and the IC50 (Human C5 [5]) was 11.9 nM.

`COc1ccccc1CNC(=O)Nc1ccc(OC)c(OCCCC(C)C)c1` [SM0006] showed a Kd (Human C5 [4]) of 18 nM, an IC50 (purified human C5) of 125 nM and an IC50 (Human C5 [5]) of 37.6 nM.

`CCCCOc1cc(NC(=O)N[C@@H](CO)c2ccccc2)ccc1OC` [SM0035] gave an IC50 (purified human C5) of 1180 nM and an IC50 (Human C5 [5]) of 328 nM.

For `COc1ccc(NC(=O)NCc2ccccc2OC(F)F)cc1OCCCC(C)C` [SM0104], the Kd (Human C5 [4]) was 210 nM and the IC50 (Human C5 [5]) was 558 nM.

`C#CC(=O)NCc1cc(OC)c(OCCCCC)cc1NC(=O)N1CCC[C@@H]1c1ccccc1Cl` [SM0201] showed an IC50 (Human C5 [5]) of 89.5 nM.

In the case of `CCCCCOc1cc(NC(=O)N2CCC[C@@H]2c2ccccc2Cl)c(CNC(=O)/C=C/CN(C)C)cc1OC` [SM0202], the IC50 (Human C5 [5]) is reported as 240 nM.

In the case of `CCCCCOc1cc(NC(=O)N2CCC[C@@H]2c2ccccc2Cl)c(CNC(=O)CCl)cc1OC` [SM0203], the IC50 (Human C5 [5]) is reported as 255 nM.

With `CCCCCOc1cc(NC(=O)N(CC(=O)O)Cc2cc(F)ccc2OC)ccc1OC` [SM0204] the IC50 (Human C5 [5]) was 753 nM.

For `CCCCCOc1cc(NC(=O)N(CC(=O)NCc2cccnc2)Cc2cc(F)ccc2OC)ccc1OC` [SM0205], the IC50 (Human C5 [5]) was 1290 nM.

`CCCCCOc1cc(NC(=O)N(CC(=O)NCCN2CCCC2)Cc2cc(F)ccc2OC)ccc1OC` [SM0206] gave an IC50 (Human C5 [5]) of 2060 nM.

For `CCCCCOc1cc(NC(=O)N(CC(=O)NCC2CC(=O)N(C)C2)Cc2cc(F)ccc2OC)ccc1OC` (stereo not shown) [SM0208], the IC50 (Human C5 [5]) was 914 nM.

In the case of `CCCCCOc1cc(NC(=O)N(CC(=O)NC2CCN(C(C)=O)CC2)Cc2cc(F)ccc2OC)ccc1OC` [SM0209], the IC50 (Human C5 [5]) is reported as 1140 nM.

`CCCCCOc1cc(NC(=O)N(CC(=O)N2CCOCC2)Cc2cc(F)ccc2OC)ccc1OC` [SM0210] gave an IC50 (Human C5 [5]) of 2120 nM.

For `CCCCCOc1cc(NC(=O)N(CC(=O)N(C)C)Cc2cc(F)ccc2OC)ccc1OC` [SM0211], the IC50 (Human C5 [5]) was 1910 nM.

For `CCCCCOc1cc(NC(=O)N(CC(=O)NC)Cc2cc(F)ccc2OC)ccc1OC` [SM0212], the IC50 (Human C5 [5]) was 867 nM.

Compound `CCCCCOc1cc(NC(=O)N(CC(N)=O)Cc2cc(F)ccc2OC)ccc1OC` [SM0213] has an IC50 (Human C5 [5]) of 903 nM.

`CCCCCOc1cc(NC(=O)N(CCC(=O)O)Cc2cc(F)ccc2OC)ccc1OC` [SM0214] showed an IC50 (Human C5 [5]) of 175 nM.

With `CCCCCOc1cc(NC(=O)N(CCC(=O)NCc2ccncc2)Cc2cc(F)ccc2OC)ccc1OC` [SM0215] the IC50 (Human C5 [5]) was 244 nM.

`CCCCCOc1cc(NC(=O)N(CCC(=O)N(C)C)Cc2cc(F)ccc2OC)ccc1OC` [SM0216] showed an IC50 (Human C5 [5]) of 199 nM.

For `CCCCCOc1cc(NC(=O)N(CCOCc2cn(C)cn2)Cc2cc(F)ccc2OC)ccc1OC` [SM0217], the IC50 (Human C5 [5]) was 210 nM.

For `COc1ccc(NC(=O)N[C@H]2COC(C)(C)Oc3c(OC)cccc32)cc1OCCCC(C)C` [SM0218], the IC50 (Human C5 [5]) was 48.6 nM.

`CCCCCOc1cc(NC(=O)NCc2ccc(Br)cc2OC)ccc1OC` [SM0219] gave an IC50 (Human C5 [5]) of 239 nM.
